How the values were obtained:
BCL6 [1] = molecular target: T1, BCL6 (Homo sapiens (Human), UniProt P41182); assay: Immunofluorescence high content imaging of BCL6 degradation in T47D cells; type: cell-based; conditions: for Dmax: T47D; for DC50: class symbols A-D, read-out: EC50 (nM)*
In short: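 T47D cells were treated for 3 days at 37 °C with 11-point 3-fold dilutions of bifunctional degrader (final top 0.1 or 1 μM). BCL6 was detected by immunofluorescence after PFA fixation, with Hoechst and cell mask counterstains, and imaged at 10×, 4 fields/well.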

BCL6 [2] = molecular target: T1, BCL6; assay: BCL6 TR-FRET assay (BCL6-Avitag-Biotin / BCoR-Cy5 peptide); type: binding
In short: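 TR-FRET displacement assay: biotinylated His-SUMO-BCL6-Avitag (2 nM) pre-incubated 30 min at room temperature with compound (12-point 3-fold titration), then BCoR-Cy5 peptide (100 nM) and Eu-streptavidin (2 nM) added. Buffer: 50 mM HEPES pH 7.5, 125 mM NaCl, 0.01% Triton X, glutathione or DTT, 0.03% BSA. Read after 2 h.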

[3] = class symbols A-D, read-out: IC50 (nM)***

| Dmax (BCL6 [1]) [%] | IC50 (BCL6 [2]; read-out: IC50) [nM] | IC50 (BCL6 [1]) [nM] | EC50 (BCL6 [2]) [nM] | Compound | also measured |
| --- | --- | --- | --- | --- | --- |
| < 50 | 10 to 50 | – | – | CNC(=O)COc1cc2cc(Nc3nc(N4CCC(O[C@H]5C[C@H](COc6cccc7c6C(=O)N(C6CCC(=O)NC6=O)C7=O)N(C)C5)CC4)ncc3Cl)ccc2n(C(C)C)c1=O (stereo partly drawn) [compound 471, 2-[(6-{[5-chloro-2-(4-{[(3S,5R)-5-({[2-(2,6-dioxopiperidin-3-yl)-1,3-dioxo-2,3-dihydro-1H-isoindol-4-yl]oxy}methyl)-1-methylpyrrolidin-3-yl]oxy}piperidin-1-yl)pyrimidin-4-yl]amino}-2-oxo-1-(propan-2-yl)-1,2-dihydroquinolin-3-yl)oxy]-N-methylacetamide] | – |
| – | – | ≥ 100 | > 100 | CNC(=O)c1cc2cc(Nc3nc(N4CCC(CN5CCN(c6ccc7c(c6)C(=O)N(C6CCC(=O)NC6=O)C7=O)CC5)CC4)ncc3Cl)ccc2n(C)c1=O (centres unmarked) [compound 214, 6-((5-chloro-2-(4-((4-(2-(2,6-dioxopiperidin-3-yl)-1,3-dioxoisoindolin-5-yl)piperazin-1-yl)methyl)piperidin-1-yl)pyrimidin-4-yl)amino)-N,1-dimethyl-2-oxo-1,2-dihydroquinoline-3-carboxamide] | – |
| – | – | 50 to 100 | > 100 | CC(=O)c1cc2cc(Nc3nc(N4CCC(CN5CCN(c6ccc7c(c6)C(=O)N(C6CCC(=O)NC6=O)C7=O)CC5)CC4)ncc3Cl)ccc2n(C)c1=O (centres unmarked) [compound 206, 5-(4-((1-(4-((3-acetyl-1-methyl-2-oxo-1,2-dihydroquinolin-6-yl)amino)-5-chloropyrimidin-2-yl)piperidin-4-yl)methyl)piperazin-1-yl)-2-(2,6-dioxopiperidin-3-yl)isoindoline-1,3-dione] | – |
| 50 to 70 | – | 10 to 50 | < 10 | CC(=O)COc1cc2cc(Nc3nc(N4CCN(CCCN5CCN(c6ccc7c(c6)C(=O)N(C6CCC(=O)NC6=O)C7=O)CC5)CC4)ncc3Cl)ccc2n(C)c1=O (centres unmarked) [compound 236, 5-(4-(3-(4-(5-chloro-4-((1-methyl-2-oxo-3-(2-oxopropoxy)-1,2-dihydroquinolin-6-yl)amino)pyrimidin-2-yl)piperazin-1-yl)propyl)piperazin-1-yl)-2-(2,6-dioxopiperidin-3-yl)isoindoline-1,3-dione] | – |

More lines, now with the values behind:

| Compound | Dmax (BCL6 [1]) [%] | IC50 (BCL6 [2]; read-out: IC50) [nM] | IC50 (BCL6 [1]) [nM] | EC50 (BCL6 [2]) [nM] | also measured |
| --- | --- | --- | --- | --- | --- |
| CC(=O)COc1cc2cc(Nc3nc(N4CCC(CCN5CCN(c6ccc7c(c6)C(=O)N(C6CCC(=O)NC6=O)C7=O)CC5)CC4)ncc3Cl)ccc2n(C)c1=O (centres unmarked) [compound 162, 5-(4-(2-(1-(5-chloro-4-((1-methyl-2-oxo-3-(2-oxopropoxy)-1,2-dihydroquinolin-6-yl)amino)pyrimidin-2-yl)piperidin-4-yl)ethyl)piperazin-1-yl)-2-(2,6-dioxopiperidin-3-yl)isoindoline-1,3-dione] | – | – | – | – | Dmax (BCL6 [1]; maximum, class symbols A-C): < 50%; DC50 (BCL6 [1]): 10 to 50 nM; IC50 (BCL6 [2]; [3]): 10 to 50 nM |
| CNC(=O)COc1cc2cc(Nc3nc(N4CCN(C[C@H]5C[C@H](N6CCN(c7cccc8c7C(=O)N(C7CCC(=O)NC7=O)C8=O)CC6)C5)CC4)ncc3Cl)ccc2n(C(C)C)c1=O (some centres unmarked) [compound 537, 2-[(6-{[5-chloro-2-(4-{[(1r,3r)-3-{4-[2-(2,6-dioxopiperidin-3-yl)-1,3-dioxo-2,3-dihydro-1H-isoindol-4-yl]piperazin-1-yl}cyclobutyl]methyl}piperazin-1-yl)pyrimidin-4-yl]amino}-2-oxo-1-(propan-2-yl)-1,2-dihydroquinolin-3-yl)oxy]-N-methylacetamide] | < 50 | < 10 | – | – | – |
| CNC(=O)COc1cc2cc(Nc3nc(N4CCN(CC5CCN(c6cccc7c6C(=O)N(C6CCC(=O)NC6=O)C7=O)CC5)CC4)ncc3Cl)ccc2n(C)c1=O (centres unmarked) [compound 207, 2-((6-((5-chloro-2-(4-((1-(2-(2,6-dioxopiperidin-3-yl)-1,3-dioxoisoindolin-4-yl)piperidin-4-yl)methyl)piperazin-1-yl)pyrimidin-4-yl)amino)-1-methyl-2-oxo-1,2-dihydroquinolin-3-yl)oxy)-N-methylacetamide] | ≥ 70 | – | < 10 | 10 to 50 | – |
| CNC(=O)COc1cc2cc(Nc3nc(N4CCC(CN5CC6(CCN(c7cccc8c7CN(C7CCC(=O)NC7=O)C8=O)CC6)C5)CC4)ncc3Cl)ccc2n(C(C)C)c1=O (centres unmarked) [compound 448, 2-{[6-({5-chloro-2-[4-({7-[2-(2,6-dioxopiperidin-3-yl)-1-oxo-2,3-dihydro-1H-isoindol-4-yl]-2,7-diazaspiro[3.5]nonan-2-yl}methyl)piperidin-1-yl]pyrimidin-4-yl}amino)-2-oxo-1-(propan-2-yl)-1,2-dihydroquinolin-3-yl]oxy}-N-methylacetamide] | 50 to 70 | < 10 | – | – | – |
| CNC(=O)COc1cc2cc(Nc3nc(N4CCC(OCCN5CCN(Cc6ccc(C#Cc7ccc8c(c7)CN(C7CCC(=O)NC7=O)C8=O)cc6)CC5)CC4)ncc3Cl)ccc2n(C)c1=O (centres unmarked) [compound 119, 2-((6-((5-chloro-2-(4-(2-(4-(4-((2-(2,6-dioxopiperidin-3-yl)-1-oxoisoindolin-5-yl)ethynyl)benzyl)piperazin-1-yl)ethoxy)piperidin-1-yl)pyrimidin-4-yl)amino)-1-methyl-2-oxo-1,2-dihydroquinolin-3-yl)oxy)-N-methylacetamide] | – | – | – | – | Dmax (BCL6 [1]; maximum, class symbols A-C): < 50%; DC50 (BCL6 [1]): 10 to 50 nM; IC50 (BCL6 [2]; [3]): < 10 nM |
| CNC(=O)[C@@H](C)Oc1cc2cc(Nc3nc(N4CCC(CN5CCN(c6ccc7c(c6)C(=O)N([C@@H]6CCC(=O)NC6=O)C7=O)CC5)CC4)ncc3Cl)ccc2n(C)c1=O [compound 212, (R)-2-((6-((5-chloro-2-(4-((4-(2-((R)-2,6-dioxopiperidin-3-yl)-1,3-dioxoisoindolin-5-yl)piperazin-1-yl)methyl)piperidin-1-yl)pyrimidin-4-yl)amino)-1-methyl-2-oxo-1,2-dihydroquinolin-3-yl)oxy)-N-methylpropanamide] | – | – | ≥ 100 | 10 to 50 | – |
| CNC(=O)COc1cc2cc(Nc3nc(N4CCN(CC5CCN(c6ccc(C(=O)NC7CCC(=O)NC7=O)c(F)c6)CC5)CC4)ncc3Cl)ccc2n(C)c1=O (centres unmarked) [compound 233, 4-(4-((4-(5-chloro-4-((1-methyl-3-(2-(methylamino)-2-oxoethoxy)-2-oxo-1,2-dihydroquinolin-6-yl)amino)pyrimidin-2-yl)piperazin-1-yl)methyl)piperidin-1-yl)-N-(2,6-dioxopiperidin-3-yl)-2-fluorobenzamide] | < 50 | – | ≥ 100 | > 100 | – |
| CNC(=O)COc1cc2cc(Nc3nc(N4CCC(CN5CCC(c6cc(OC)cc(C(=O)NC7CCC(=O)NC7=O)c6F)CC5)CC4)ncc3Cl)ccc2n(C)c1=O (centres unmarked) [compound 467, 3-[1-({1-[5-chloro-4-({1-methyl-3-[(methylcarbamoyl)methoxy]-2-oxo-1,2-dihydroquinolin-6-yl}amino)pyrimidin-2-yl]piperidin-4-yl}methyl)piperidin-4-yl]-N-(2,6-dioxopiperidin-3-yl)-2-fluoro-5-methoxybenzamide] | < 50 | 10 to 50 | – | – | – |
| CN(C)C(=O)COc1cc2cc(Nc3nc(N4CCC(CN5CCN(c6ccc7c(c6)C(=O)N(C6CCC(=O)NC6=O)C7=O)CC5)CC4)ncc3Cl)ccc2n(C)c1=O (centres unmarked) [compound 166, 2-((6-((5-chloro-2-(4-((4-(2-(2,6-dioxopiperidin-3-yl)-1,3-dioxoisoindolin-5-yl)piperazin-1-yl)methyl)piperidin-1-yl)pyrimidin-4-yl)amino)-1-methyl-2-oxo-1,2-dihydroquinolin-3-yl)oxy)-N,N-dimethylacetamide] | – | – | – | – | Dmax (BCL6 [1]; maximum, class symbols A-C): < 50%; DC50 (BCL6 [1]): > 100 nM; IC50 (BCL6 [2]; [3]): 50 to 100 nM |
| CNC(=O)COc1cc2cc(Nc3nc(N4CCC(O[C@@H]5C[C@H](Oc6ccc7c(c6)C(=O)N(C6CCC(=O)NC6=O)C7=O)CN(C)C5)CC4)ncc3Cl)ccc2n(C(C)C)c1=O (stereo partly drawn) [compound 461, 2-[(6-{[5-chloro-2-(4-{[(3R,5S)-5-{[2-(2,6-dioxopiperidin-3-yl)-1,3-dioxo-2,3-dihydro-1H-isoindol-5-yl]oxy}-1-methylpiperidin-3-yl]oxy}piperidin-1-yl)pyrimidin-4-yl]amino}-2-oxo-1-(propan-2-yl)-1,2-dihydroquinolin-3-yl)oxy]-N-methylacetamide] | 50 to 70 | 10 to 50 | – | – | – |
| CC(=O)COc1cc2cc(Nc3nc(N4CCC(OCCN5CCN(c6ccc7c(c6)CN(C6CCC(=O)NC6=O)C7=O)CC5)CC4)ncc3Cl)ccc2n(C)c1=O (centres unmarked) [compound 128, 3-(5-(4-(2-((1-(5-chloro-4-((1-methyl-2-oxo-3-(2-oxopropoxy)-1,2-dihydroquinolin-6-yl)amino)pyrimidin-2-yl)piperidin-4-yl)oxy)ethyl)piperazin-1-yl)-1-oxoisoindolin-2-yl)piperidine-2,6-dione] | – | – | – | – | Dmax (BCL6 [1]; maximum, class symbols A-C): < 50%; DC50 (BCL6 [1]): < 10 nM; IC50 (BCL6 [2]; [3]): < 10 nM |
| CNC(=O)COc1cc2cc(Nc3nc(N(C)C)ncc3Cl)ccc2n(CCOc2ccc3c(c2)C(=O)N(C2CCC(=O)NC2=O)C3=O)c1=O (centres unmarked) [compound 470, 2-[(6-{[5-chloro-2-(dimethylamino)pyrimidin-4-yl]amino}-1-(2-{[2-(2,6-dioxopiperidin-3-yl)-1,3-dioxo-2,3-dihydro-1H-isoindol-5-yl]oxy}ethyl)-2-oxo-1,2-dihydroquinolin-3-yl)oxy]-N-methylacetamide] | < 50 | 10 to 50 | – | – | – |
| CNC(=O)COc1cc2cc(Nc3nc(N4CC5(CCC(OC6CCN(c7cccc8c7C(=O)N(C7CCC(=O)NC7=O)C8=O)CC6)CC5)C4)ncc3Cl)ccc2n(C(C)C)c1=O (centres unmarked) [compound 445, 2-{[6-({5-chloro-2-[7-({1-[2-(2,6-dioxopiperidin-3-yl)-1,3-dioxo-2,3-dihydro-1H-isoindol-4-yl]piperidin-4-yl}oxy)-2-azaspiro[3.5]nonan-2-yl]pyrimidin-4-yl}amino)-2-oxo-1-(propan-2-yl)-1,2-dihydroquinolin-3-yl]oxy}-N-methylacetamide] | ≥ 70 | < 10 | – | – | – |
